Measurements as given in patent publication US20160101109A1, “METHOD OF TREATING ARTHRITIS” (AbbVie Inc., priority 2007, published 2016).
Entries after “also recorded” stand apart in the source; their conditions may differ.

Legend:
activated T lymphocytes = test: mixed-lymphocyte reaction (MLR), mouse lymphocyte in vitro activation; type: cell-based
activated B lymphocytes = test: lipopolysaccharide stimulation, mouse lymphocyte in vitro activation; type: cell-based
[1] = system: KLH antigen-specific T cells; test: KLH immunization of mice, ex vivo restimulation of T cells; type: in vivo, mouse
From the text: Mice were immunized with keyhole limpet hemocyanin (KLH) and treated with EXAMPLE A or vehicle control.

[2] = system: DBA/1J (H-2q) mice immunized with collagen; test: mouse model of arthritis (collagen immunization, zymosan boost); type: in vivo; settings: EXAMPLE A 50 mg/kg per day, dexamethasone 1 mg/kg per day, 3 weeks, p<0.5 versus vehicle control
Method: Also, a standard mouse model of arthritis using DBA/1J (H-2q) mice immunized with collagen and boosted with zymosan 21 days later was used to induce disease. The mice were than treated with EXAMPLE A (50 mg/kg per day), vehicle (with no drug) and dexamethasone (1 mg/kg per day) at the first clinical sign of disease. The mice were then evaluated for mean arthritic score (MAS) and paw swelling for 3 weeks after treatment began.

mouse ankles = test: total bone volume by microcomputed tomography (μCT) of mouse ankles; type: in vivo; settings: 1.8-mm section of ankle, resolution 18 μm, FIG. 3
Method: Still also, total bone volumes were measured by microcomputed tomography (μCT) for a 1.8-mm tall section of mouse ankles from the base of the tibia to the tarsal/metatarsal joints at a resolution of 18 μm.

In the case of `CN(C)CC[C@H](CSc1ccccc1)Nc1ccc(S(=O)(=O)NC(=O)c2ccc(N3CCN(Cc4ccccc4-c4ccc(Cl)cc4)CC3)cc2)cc1[N+](=O)[O-]` [EXAMPLE A, N-(4-(4-((4′-chloro(1,1′-biphenyl)-2-yl)methyl)piperazin-1-yl)benzoyl)-4-(((1R)-3-(dimethylamino)-1-((phenylsulfanyl)methyl)propyl)amino)-3-nitrobenzenesulfonamide], the “proliferation of activated T lymphocytes in a mixed-lymphocyte reaction (MLR)” value (activated T lymphocytes) is reported as “inhibited in a concentration-dependent manner”, the “proliferation of activated B lymphocytes upon lipopolysaccharide stimulation” value (activated B lymphocytes) is reported as “inhibited in a concentration-dependent manner” and the “responsiveness of T cells spared after treatment” value ([1]; concavalin A stimulation) is reported as “responsive to concavalin A”. The “proliferation of KLH antigen-specific T cells on restimulation ex vivo” value ([1]; mice immunized with KLH and treated, versus vehicle control) was “significant inhibition of proliferation”, the paw swelling ([2]; FIG. 1) was “inhibition of arthritis; also recorded: reduction in mouse paw swelling” and the “arthritis as assessed by MAS (mean arthritic score)” value ([2]; FIG. 2) was “inhibition of arthritis”. The mouse bone volume (mouse ankles) was “increase in mouse bone volume”.
